Test results published in patent US20250213558A1, “T-TYPE CALCIUM CHANNEL MODULATORS COMPRISING A PIPERAZINE OR 1,4-DIAZEPANE CORE AND METHODS OF USE THEREOF” (Praxis Precision Medicines, Inc., priority 2022, published 2025).

What follows are compounds tested against T1, Human Cav3.1 calcium channel (Homo sapiens, UniProt O43497) (assay: Human Cav3.1 calcium channel patch clamp assay (SyncroPatch 384PE; single point and IC50, voltage dependent block)). Details: not given.
T1 construct: expressed in transfected cells; host or cells: HEK-293 natClytin/TASK1+Cav3.1 cell line
Format: cell-based
Outline: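 Automated whole-cell patch clamp at room temperature, cells held at −120 mV; 100 ms step to −20 mV (resting block), then 1600 ms at −65 mV and a second −20 mV step (voltage-dependent block), every 15 s. Peak currents averaged over last 3 sweeps; % inhibition relative to nickel-sensitive current.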

T1 sequence (O43497 whole entry): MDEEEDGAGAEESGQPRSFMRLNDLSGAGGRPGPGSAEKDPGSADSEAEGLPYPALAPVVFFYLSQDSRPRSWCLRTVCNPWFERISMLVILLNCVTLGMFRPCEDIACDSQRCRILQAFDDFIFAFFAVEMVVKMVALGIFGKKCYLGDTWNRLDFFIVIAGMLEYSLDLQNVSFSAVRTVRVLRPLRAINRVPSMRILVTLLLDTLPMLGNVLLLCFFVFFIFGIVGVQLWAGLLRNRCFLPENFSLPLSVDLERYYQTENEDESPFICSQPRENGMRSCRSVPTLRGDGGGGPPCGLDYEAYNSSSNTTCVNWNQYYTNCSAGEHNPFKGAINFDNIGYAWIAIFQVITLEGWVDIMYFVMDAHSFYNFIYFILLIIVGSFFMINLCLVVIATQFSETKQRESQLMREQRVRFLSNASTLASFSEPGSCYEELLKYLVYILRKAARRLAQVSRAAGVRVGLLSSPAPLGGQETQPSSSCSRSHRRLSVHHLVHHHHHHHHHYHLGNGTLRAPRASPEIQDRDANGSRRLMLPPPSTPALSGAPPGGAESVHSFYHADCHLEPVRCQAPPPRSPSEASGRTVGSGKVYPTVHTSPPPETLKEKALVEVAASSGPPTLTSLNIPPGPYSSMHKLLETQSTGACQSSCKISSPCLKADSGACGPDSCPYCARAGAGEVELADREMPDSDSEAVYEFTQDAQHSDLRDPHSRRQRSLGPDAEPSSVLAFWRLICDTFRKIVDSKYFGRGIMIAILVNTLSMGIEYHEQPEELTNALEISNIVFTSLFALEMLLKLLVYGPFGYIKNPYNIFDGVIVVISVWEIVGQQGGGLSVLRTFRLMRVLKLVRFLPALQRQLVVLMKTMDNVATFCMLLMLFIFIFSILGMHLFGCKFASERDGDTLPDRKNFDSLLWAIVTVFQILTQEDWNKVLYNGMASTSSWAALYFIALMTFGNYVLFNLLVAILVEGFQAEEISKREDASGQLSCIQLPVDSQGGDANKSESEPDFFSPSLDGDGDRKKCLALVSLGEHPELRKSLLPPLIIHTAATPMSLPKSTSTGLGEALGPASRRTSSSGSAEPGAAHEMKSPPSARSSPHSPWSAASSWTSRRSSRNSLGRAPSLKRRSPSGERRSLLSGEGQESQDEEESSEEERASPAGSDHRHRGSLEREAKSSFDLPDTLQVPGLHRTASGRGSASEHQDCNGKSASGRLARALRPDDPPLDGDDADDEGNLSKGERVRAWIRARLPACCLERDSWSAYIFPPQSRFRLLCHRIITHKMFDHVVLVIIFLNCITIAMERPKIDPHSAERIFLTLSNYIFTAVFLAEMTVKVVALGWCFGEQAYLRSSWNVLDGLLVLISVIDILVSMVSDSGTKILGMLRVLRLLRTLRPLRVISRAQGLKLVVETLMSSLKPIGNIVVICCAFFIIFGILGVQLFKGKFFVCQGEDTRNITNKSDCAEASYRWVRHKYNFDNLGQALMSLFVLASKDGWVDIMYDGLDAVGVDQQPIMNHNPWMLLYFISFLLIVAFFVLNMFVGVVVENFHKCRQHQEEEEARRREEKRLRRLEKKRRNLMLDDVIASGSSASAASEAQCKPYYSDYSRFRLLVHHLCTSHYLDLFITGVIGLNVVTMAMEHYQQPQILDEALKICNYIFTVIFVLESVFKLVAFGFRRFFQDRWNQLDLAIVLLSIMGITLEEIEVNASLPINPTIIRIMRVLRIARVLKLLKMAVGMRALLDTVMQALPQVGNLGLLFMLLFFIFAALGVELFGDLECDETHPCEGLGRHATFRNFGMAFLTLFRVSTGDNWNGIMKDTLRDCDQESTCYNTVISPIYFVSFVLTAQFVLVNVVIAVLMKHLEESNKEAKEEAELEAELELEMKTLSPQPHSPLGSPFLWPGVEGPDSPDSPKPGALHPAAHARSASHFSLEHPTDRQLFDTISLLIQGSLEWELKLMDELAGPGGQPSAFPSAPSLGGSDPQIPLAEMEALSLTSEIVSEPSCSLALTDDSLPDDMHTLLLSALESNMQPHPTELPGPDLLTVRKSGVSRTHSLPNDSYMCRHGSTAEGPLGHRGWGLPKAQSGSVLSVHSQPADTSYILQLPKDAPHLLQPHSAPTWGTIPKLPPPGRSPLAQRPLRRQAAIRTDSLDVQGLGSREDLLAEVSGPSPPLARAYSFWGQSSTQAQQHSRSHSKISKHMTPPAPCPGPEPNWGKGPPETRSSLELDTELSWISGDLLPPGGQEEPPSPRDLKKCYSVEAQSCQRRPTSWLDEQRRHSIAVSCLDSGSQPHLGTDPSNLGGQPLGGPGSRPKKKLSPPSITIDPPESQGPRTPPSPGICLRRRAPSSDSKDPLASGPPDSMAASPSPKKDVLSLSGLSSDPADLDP

SMILES	IC50
O=C(CN1CC2CC(C1)N2CC(=O)NC1(C(F)(F)F)CC1)Nc1ccc(F)c(OC(F)F)c1 [Compound 245]	97.8 nM
CN(C(=O)CN1C2CC1CN(Cc1nc3c(Cl)cc(F)cc3[nH]1)C2)C1CCCC1 [Compound 110]	< 78.2 nM

Same assay, conditions: Testing Conc 1; HEK-293 natClytin/TASK1+Cav3.1 cell line, patch clamp

% Inhibition (Single Point Data)	SMILES
30.86%	O=C(CN1CCN(CCC2CCOCC2)CC1=O)Nc1cc(F)cc(Cl)c1 [Compound 38]

Same assay, conditions: Testing Conc 1.25; HEK-293 natClytin/TASK1+Cav3.1 cell line, patch clamp

SMILES	% Inhibition (Single Point Data)
CC(C)(NC(=O)CN1C2CCC1CN(Cc1nc3c(Cl)cc(F)cc3[nH]1)C2)C(F)(F)F [Compound 76]	100.39%
COc1ccc(F)c2[nH]c(CN3CC4CC(C3)N4CC(=O)NC(C)(C)C)nc12 [Compound 175]	89.419%
O=C(CN1CC2CC(C1)N2CC(=O)NC1(C(F)(F)F)CC1)Nc1ccc(F)c(OC(F)(F)F)c1 [Compound 243]	93.979%
CC(C)(C)NC(=O)CN1C[C@@H]2C[C@H]1CN2CC(=O)Nc1cc(Cl)cc(OC(F)F)c1 [Compound 294]	101.56%
CC(C)(C)NC(=O)CN1C2CC1CN(CC(=O)NC13CC4CC(CC(C4)C1)C3)C2 [Compound 258]	91.927%
CC1(C)CC(CN2C3CC2CN(Cc2nc4c(Cl)cc(F)cc4[nH]2)C3)CCO1 (stereo not drawn) [Compound 112]	82.988%
Cc1cc(CNC(=O)CN2C[C@@H]3C[C@H]2CN3CC(=O)NC(C)(C)C)nn1-c1ccccc1 [Compound 274]	13.426%
CC(C)(C)NC(=O)CN1C2CC1CN(c1nc3c(Cl)cc(F)cc3[nH]1)C2 [Compound 209]	24.65%
CC(C)(NC(=O)CN1CC2CC1CN2Cc1nc2c(Cl)cc(F)cc2[nH]1)C(F)(F)F (stereo not drawn) [Compound 125]	95.552%
COc1cc(NC(=O)CN2C[C@@H]3C[C@H]2CN3CC(=O)NC2(C(F)(F)F)CC2)ccc1F [Compound 311]	83.804%
COc1cc(NC(=O)CN2CC3CC(C2)N3CC(=O)NC2(C(F)(F)F)CC2)ccc1Cl [Compound 332]	101.57%
CC(C)(C)NC(=O)CN1C[C@@H]2C[C@H]1CN2CC(=O)NC12CC3CC(C1)CC(OC(F)F)(C3)C2 [Compound 346]	86.624%
COc1ccc(Cl)c2nc(CN3CC4CC(C3)N4CC(=O)NC(C)(C)C(F)(F)F)[nH]c12 [Compound 136]	100.03%
CC(C)(C)NC(=O)CN1C[C@@H]2CC[C@H]1CN2CC(=O)Nc1cc(F)cc(Cl)c1 [Compound 270]	95.978%
CC(C)(C)NC(=O)CN1C2COCC1CN(Cc1nc3c(Cl)cc(F)cc3[nH]1)C2 [Compound 148]	11.572%
O=C(CN1CC2CC(C1)N2CCNC(=O)C1(C(F)(F)F)CCC1)Nc1cc(F)cc(Cl)c1 [Compound 229]	89.382%
CC(C(=O)Nc1ccc(F)c(OC(F)F)c1)N1C[C@@H]2C[C@H]1CN2CC(=O)NC(C)(C)C (stereo partly drawn) [Compound 263]	90.098%
CC(C)(C)NC(=O)CN1C2CC1CN(CC(=O)NC13CC4CC(CC(F)(C4)C1)C3)C2 [Compound 315]	72.558%
CC(C)(C)NC(=O)CN1C2CC1CN(CC(=O)Nc1cc(F)ccc1C#N)C2 [Compound 219]	35.823%
CC(C)(C)NC(=O)CN1C[C@@H]2C[C@H]1CN2CC(=O)NC12CCC(CC1)CC2 [Compound 287]	72.068%
CC(C)(C)NC(=O)CN1C2CC1CN(CC(=O)Nc1cccc(OC(F)F)c1)C2 [Compound 12]	81.341%
CC(C)(C)OC(=O)CN1C2CC1CN(Cc1nc3c(Cl)cc(F)cc3[nH]1)C2 [Compound 139]	92.564%
CC(C)(C)NC(=O)CN1C2CCC1CN(Cc1nc3cc(F)cc(Cl)c3o1)C2 [Compound 193]	23.525%
CC(C)(C)NC(=O)CN1C2CC1CN(CC(=O)Nc1cc(Cl)ccc1F)C2 [Compound 14]	39.34%
O=C(CN1C2CCC1CN(Cc1nc3c(Cl)cc(F)cc3[nH]1)C2)N1CCC(O)CC1 [Compound 88]	61.278%
Fc1cc(Cl)c2nc(CN3CC4CC(C3)N4CC3CCC(F)(F)CC3)[nH]c2c1 [Compound 98]	92.211%
CC1(C)CC(CN2C3CC2CN(CC(=O)NC24CC5CC(CC(C5)C2)C4)C3)CCO1 (stereo not drawn) [Compound 299]	43.196%
O=C(CN1CC2CC(C1)N2CC(=O)NC1(C(F)(F)F)CC1)Nc1ccc(F)c(OC(F)F)c1 [Compound 245]	96.987%
CN(C(=O)CN1C2CC1CN(Cc1nc3c(Cl)cc(F)cc3[nH]1)C2)C1CCCC1 [Compound 110]	91.767%

Same assay, conditions: voltage dependent block (VDB); HEK-293 natClytin/TASK1+Cav3.1 cell line; read-out: Cav3.1 IC50

SMILES	IC50
COc1ccc(F)c2[nH]c(CN3CC4CC(C3)N4CC(=O)NC(C)(C)C)nc12 [Compound 175]	147 nM
O=C(CN1CC2CC(C1)N2CC(=O)NC1(C(F)(F)F)CC1)Nc1ccc(F)c(OC(F)(F)F)c1 [Compound 243]	137 nM
CC(C)(C)NC(=O)CN1C[C@@H]2C[C@H]1CN2CC(=O)Nc1cc(Cl)cc(OC(F)F)c1 [Compound 294]	58.7 nM
CC(C)(C)NC(=O)CN1C2CC1CN(CC(=O)NC13CC4CC(CC(C4)C1)C3)C2 [Compound 258]	410 nM
CC(C)(C)NC(=O)CN1C2CC1CN(c1nc3c(Cl)cc(F)cc3[nH]1)C2 [Compound 209]	5090 nM
CC(C)(NC(=O)CN1CC2CC1CN2Cc1nc2c(Cl)cc(F)cc2[nH]1)C(F)(F)F (stereo not drawn) [Compound 125]	156 nM
COc1cc(NC(=O)CN2C[C@@H]3C[C@H]2CN3CC(=O)NC2(C(F)(F)F)CC2)ccc1F [Compound 311]	385 nM
CC(C)(C)NC(=O)CN1C[C@@H]2C[C@H]1CN2CC(=O)NC12CC3CC(C1)CC(OC(F)F)(C3)C2 [Compound 346]	399 nM
CC(C(=O)Nc1ccc(F)c(OC(F)F)c1)N1C[C@@H]2C[C@H]1CN2CC(=O)NC(C)(C)C (stereo partly drawn) [Compound 263]	234 nM
CC(C)(C)NC(=O)CN1C2CC1CN(CC(=O)NC13CC4CC(CC(F)(C4)C1)C3)C2 [Compound 315]	592 nM
CC(C)(C)NC(=O)CN1C[C@@H]2C[C@H]1CN2CC(=O)NC12CCC(CC1)CC2 [Compound 287]	682 nM
CC(C)(C)OC(=O)CN1C2CC1CN(Cc1nc3c(Cl)cc(F)cc3[nH]1)C2 [Compound 139]	153 nM
CC(C)(C)NC(=O)CN1C2CCC1CN(Cc1nc3cc(F)cc(Cl)c3o1)C2 [Compound 193]	2200 nM
CC(C)(C)NC(=O)CN1C2CC1CN(CC(=O)Nc1cc(Cl)ccc1F)C2 [Compound 14]	1710 nM
Fc1cc(Cl)c2nc(CN3CC4CC(C3)N4CC3CCC(F)(F)CC3)[nH]c2c1 [Compound 98]	231 nM
CC1(C)CC(CN2C3CC2CN(CC(=O)NC24CC5CC(CC(C5)C2)C4)C3)CCO1 (stereo not drawn) [Compound 299]	932 nM
